Values of other authors as cited in patent US20030212112A1, “Method for administering a phosphodiesterase 4 inhibitor” (SmithKline Beecham Corporation, priority 1999, published 2003).

Conditions: clinical studies / indications reported in background

For `CCCCn1c(=O)c2c(ncn2CC(C)=O)n(CCCC)c1=O` [denbufylline], the side effects is given as “may include pyrosis, nausea and emesis”.
For `COc1ccc(C2CNC(=O)C2)cc1OC1CCCC1` (centres unmarked) [rolipram], the side effects is given as “psychotropic activity and produces gastrointestinal effects”.
